Results reported in patent US20260055103A1, “2,3,4,9-TETRAHYDRO-1H-PYRIDO[3,4-B]INDOLE DERIVATIVES AS ESTROGEN RECEPTOR MODULATORS FOR THE TREATMENT OF CANCER” (Olema Pharmaceuticals, Inc., priority 2022, published 2026).

Molecular target: T1, estrogen receptor (Homo sapiens, UniProt P03372)
T1 construct: endogenous in cells; host or cells: ECC-1 cells
T1 sequence (P03372 1-595): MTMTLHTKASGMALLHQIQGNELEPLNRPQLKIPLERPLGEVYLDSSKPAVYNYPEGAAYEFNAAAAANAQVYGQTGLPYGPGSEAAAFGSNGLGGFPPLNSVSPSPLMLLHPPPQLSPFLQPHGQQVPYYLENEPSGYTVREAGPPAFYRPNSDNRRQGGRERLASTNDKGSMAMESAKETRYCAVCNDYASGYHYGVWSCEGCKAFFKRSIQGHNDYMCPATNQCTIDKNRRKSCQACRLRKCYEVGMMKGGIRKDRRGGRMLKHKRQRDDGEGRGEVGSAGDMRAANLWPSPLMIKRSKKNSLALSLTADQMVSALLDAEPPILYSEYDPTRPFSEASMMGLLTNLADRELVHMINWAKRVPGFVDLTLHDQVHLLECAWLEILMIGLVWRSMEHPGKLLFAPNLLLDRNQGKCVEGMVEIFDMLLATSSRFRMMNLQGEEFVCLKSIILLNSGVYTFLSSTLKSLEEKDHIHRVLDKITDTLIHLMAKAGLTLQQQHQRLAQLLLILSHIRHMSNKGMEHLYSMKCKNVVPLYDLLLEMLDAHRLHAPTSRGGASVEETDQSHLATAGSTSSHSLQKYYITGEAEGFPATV
Assay: Alkaline phosphatase (AP) assay in ECC-1 cells, agonist mode (no E2) and antagonist mode (500 pM E2)
Format: cell-based
Conditions: 3 days, AP activity normalized to 500 pM E2 alone, agonist mode without E2, antagonist mode with 500 pM E2
In short: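 ECC-1 cells in hormone-depleted medium treated 3 days with compound alone (agonist mode) or with 500 pM E2 (antagonist mode). Alkaline phosphatase read by p-nitrophenyl phosphate hydrolysis, 40 min at 42° C, A405. Activity normalized to 500 pM E2 alone.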

`C[C@@H]1Cc2c([nH]c3ccccc23)[C@@H](c2ccc(CC3CN(CCCF)C3)s2)N1CC(F)(F)C(F)F` [Example I-27, (1S,3R)-1-(5-((1-(3-fluoropropyl)azetidin-3-yl)methyl)thiophen-2-yl)-3-methyl-2-(2,2,3,3-tetrafluoropropyl)-2,3,4,9-tetrahydro-1H-pyrido[3,4-b]indole] was tested, and the “Activity (estrogen receptor modulation, agonism and antagonism)” value (“Activity” for short) was “++ (estrogen receptor antagonism having (i) between 10% and 80% increase in the E2-normalized signal in the AP assay (agonist mode) and (ii) between 10% and 80% reduction in the E2-normalized signal in the AP assay (antagonist mode))”.

`C[C@@H]1Cc2c([nH]c3ccccc23)[C@@H](c2cnc(C[C@@H]3CCN(CCC(F)F)C3)s2)N1CC(C)(C)F` [Example I-51, 2-[[(3S)-1-(3,3-difluoropropyl)pyrrolidin-3-yl]methyl]-5-[(1S,3R)-2-(2-fluoro-2-methyl-propyl)-3-methyl-1,3,4,9-tetrahydropyrido[3,4-b]indol-1-yl]thiazole] was tested, and the “Activity” value was “+ (estrogen receptor agonism having (i) at least 80% increase in the E2-normalized signal in the AP assay (agonist mode) and (ii) no more than 80% reduction in the E2-normalized signal in the AP assay (antagonist mode))”.

`C[C@@H]1CCN(CCCc2ccc([C@@H]3c4[nH]c5ccccc5c4C[C@@H](C)N3CC(C)(C)F)s2)C1` [Example I-26, (3R)-1-(3-{5-[(1S,3R)-2-(2-fluoro-2-methylpropyl)-3-methyl-1H,2H,3H,4H,9H-pyrido[3,4-b]indol-1-yl]thiophen-2-yl}propyl)-3-methylpyrrolidine] was tested, and the “Activity” value was “++ (estrogen receptor antagonism having (i) between 10% and 80% increase in the E2-normalized signal in the AP assay (agonist mode) and (ii) between 10% and 80% reduction in the E2-normalized signal in the AP assay (antagonist mode))”.

`C[C@@H]1Cc2c([nH]c3ccccc23)[C@@H](c2cnc(NC3CN(CCCF)C3)s2)N1CC(F)(F)CO` [Example I-63, 2,2-difluoro-3-[(1S,3R)-1-[2-[[1-(3-fluoropropyl)azetidin-3-yl]amino]thiazol-5-yl]-3-methyl-1,3,4,9-tetrahydropyrido[3,4-b]indol-2-yl]propan-1-ol] was tested, and the “Activity” value was “++ (estrogen receptor antagonism having (i) between 10% and 80% increase in the E2-normalized signal in the AP assay (agonist mode) and (ii) between 10% and 80% reduction in the E2-normalized signal in the AP assay (antagonist mode))”.

With `C[C@@H]1Cc2c([nH]c3ccccc23)[C@@H](c2ccc(CC3CN(CCCF)C3)s2)N1CC(C)(C)F` [Example I-2, 3-({5-[(1S,3R)-2-(2-fluoro-2-methylpropyl)-3-methyl-1H,2H,3H,4H,9H-pyrido[3,4-b]indol-1-yl]thiophen-2-yl}methyl)-1-(3-fluoropropyl)azetidine] the “Activity” value was “++ (estrogen receptor antagonism having (i) between 10% and 80% increase in the E2-normalized signal in the AP assay (agonist mode) and (ii) between 10% and 80% reduction in the E2-normalized signal in the AP assay (antagonist mode))”.

With `C[C@@H]1Cc2c([nH]c3ccccc23)[C@@H](c2cnc(C[C@H]3CCN(CCCF)C3)s2)N1CC(F)F` [Example I-30, 5-((1S,3R)-2-(2,2-difluoroethyl)-3-methyl-2,3,4,9-tetrahydro-1H-pyrido[3,4-b]indol-1-yl)-2-(((R)-1-(3-fluoropropyl)pyrrolidin-3-yl)methyl)thiazole] the “Activity” value was “++ (estrogen receptor antagonism having (i) between 10% and 80% increase in the E2-normalized signal in the AP assay (agonist mode) and (ii) between 10% and 80% reduction in the E2-normalized signal in the AP assay (antagonist mode))”.

`C[C@@H]1Cc2c([nH]c3ccccc23)[C@@H](c2cnc(C[C@@H]3CCN(CCCF)C3)s2)N1CC(F)(F)F` [Example I-48, 2-[[(3S)-1-(3-fluoropropyl)pyrrolidin-3-yl]methyl]-5-[(1S,3R)-3-methyl-2-(2,2,2-trifluoroethyl)-1,3,4,9-tetrahydropyrido[3,4-b]indol-1-yl]thiazole] was tested, and the “Activity” value was “++ (estrogen receptor antagonism having (i) between 10% and 80% increase in the E2-normalized signal in the AP assay (agonist mode) and (ii) between 10% and 80% reduction in the E2-normalized signal in the AP assay (antagonist mode))”.

`C[C@@H]1Cc2c([nH]c3ccccc23)[C@@H](c2sc(CC3CN(CCCF)C3)cc2F)N1CC(F)(F)CO` [Example I-55, 2,2-difluoro-3-[(1S,3R)-1-[3-fluoro-5-[[1-(3-fluoropropyl)azetidin-3-yl]methyl]-2-thienyl]-3-methyl-1,3,4,9-tetrahydropyrido[3,4-b]indol-2-yl]propan-1-ol] was tested, and the “Activity” value was “+++ (estrogen receptor antagonism (i) with pIC50 greater than 7.5 and at least a 10% reduction in the E2-normalized signal in the AP assay (antagonist mode); and no more than 10% increase in E2-normalized signal in the AP assay (agonist mode))”.

With `C[C@@H]1Cc2c([nH]c3ccccc23)[C@@H](c2cnc(C[C@@H]3CCN(CCCF)C3)s2)N1CC(F)F` [Example I-41, 5-[(1S,3R)-2-(2,2-difluoroethyl)-3-methyl-1,3,4,9-tetrahydropyrido[3,4-b]indol-1-yl]-2-[[(3S)-1-(3-fluoropropyl)pyrrolidin-3-yl]methyl]thiazole] the “Activity” value was “++ (estrogen receptor antagonism having (i) between 10% and 80% increase in the E2-normalized signal in the AP assay (agonist mode) and (ii) between 10% and 80% reduction in the E2-normalized signal in the AP assay (antagonist mode))”.

In the case of `CCCN1CC[C@@H](Cc2ncc([C@@H]3c4[nH]c5ccccc5c4C[C@@H](C)N3CC(F)(F)F)s2)C1` [Example I-49, 5-[(1S,3R)-3-methyl-2-(2,2,2-trifluoroethyl)-1,3,4,9-tetrahydropyrido[3,4-b]indol-1-yl]-2-[[(3S)-1-propylpyrrolidin-3-yl]methyl]thiazole], the “Activity” value is reported as “+ (estrogen receptor agonism having (i) at least 80% increase in the E2-normalized signal in the AP assay (agonist mode) and (ii) no more than 80% reduction in the E2-normalized signal in the AP assay (antagonist mode))”.

`C[C@@H]1Cc2c([nH]c3ccccc23)[C@@H](c2cnc(C[C@@H]3CCN(CCCF)C3)s2)N1CC(C)(C)F` [Example I-43] was tested, and the “Activity” value was “++ (estrogen receptor antagonism having (i) between 10% and 80% increase in the E2-normalized signal in the AP assay (agonist mode) and (ii) between 10% and 80% reduction in the E2-normalized signal in the AP assay (antagonist mode))”.

`C[C@@H]1Cc2c([nH]c3ccccc23)[C@@H](c2cnc(C[C@H]3CCN(CCCF)C3)s2)N1CC(F)(F)CO` [Example I-36, 2,2-difluoro-3-[(1S,3R)-1-[2-[[(3R)-1-(3-fluoropropyl)pyrrolidin-3-yl]methyl]thiazol-5-yl]-3-methyl-1,3,4,9-tetrahydropyrido[3,4-b]indol-2-yl]propan-1-ol] was tested, and the “Activity” value was “+ (estrogen receptor agonism having (i) at least 80% increase in the E2-normalized signal in the AP assay (agonist mode) and (ii) no more than 80% reduction in the E2-normalized signal in the AP assay (antagonist mode))”.

With `CCCN1CC(Cc2cnc([C@@H]3c4[nH]c5ccccc5c4C[C@@H](C)N3CC(C)(C)F)s2)C1` [Example I-3, 2-[(1S,3R)-2-(2-fluoro-2-methylpropyl)-3-methyl-1H,2H,3H,4H,9H-pyrido[3,4-b]indol-1-yl]-5-[(1-propylazetidin-3-yl)methyl]-1,3-thiazole] the “Activity” value was “+ (estrogen receptor agonism having (i) at least 80% increase in the E2-normalized signal in the AP assay (agonist mode) and (ii) no more than 80% reduction in the E2-normalized signal in the AP assay (antagonist mode))”.
